Data as given in patent US20200078468A1, “NEUROTENSIN RECEPTOR BINDING CONJUGATES AND FORMULATIONS THEREOF” (priority 2016, published 2020).
Read-outs that look alike come from different tables or passages of the source. Numbered stars: 1 amine (or outer) side, 2 acyl side, 3 side chain; on linkers, the order of the positions; unused ones are H or OH. Bridge positions count the residues as written; N and C are the ends. Square brackets hold non-standard residues; d marks the D form. Peptide text beside a SMILES is read from it. I, II: the chains in the order shown. * marks the point of attachment. X3 = COc1cccc2c1C(=O)c1c(O)c3c(c(O)c1C2=O)C[C@@](O)(C(=O)CO)C[C@@H]3O[C@H]1C[C@H](NC(=O)OCCS*)[C@H](O)[C@H](C)O1; X4 = CCc1c2c(nc3ccc(O)cc13)-c1cc3c(c(=O)n1C2)COC(=O)[C@@]3(CC)OC(=O)OCCS*; Hexanoyl(6-succinimido-3yl) = O=C1CC([*:1])C(=O)N1CCCCCC(=O)[*:2]; Dolaproine = CO[C@@H]([C@@H]1CCCN1)[C@@H](C)C(=O)O; Dil = CC[C@H](C)[C@H](NC)[C@@H](CC(=O)O)OC; PABC = O=C(OCc1ccc(N[*:1])cc1)[*:2]; X1 = C[C@@H](N*)[C@@H](O)c1ccccc1; Cit = NC(=O)NCCC[C@H](N)C(=O)O; Pen = CC(C)(S)[C@H](N)C(=O)O; Tle = CC(C)(C)[C@H](N)C(=O)O; NMeV = CN[C@H](C(=O)O)C(C)C

What was measured:
human NTSR1 = target: T1, human NTSR1 (Homo sapiens, UniProt P30989); assay: radioligand-receptor binding assay, [125I] labeled neurotensin (Eurofins Panlabs)
T1 construct: host or cells: HEK-293 cells (membrane preparations)
In short: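 Membranes from HEK-293 cells expressing human NTSR1 incubated 45 min with 0.02 nM [125I]neurotensin and conjugate in 6-point 3-fold dilutions from 100 or 10 nM; bound radioactivity counted after filtration. IC50 by nonlinear regression, converted to Ki via Cheng–Prusoff using historical ligand Kd.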

[1] = tested on: SW48 (human colon cancer cells); assay: inhibition of SW48 cell proliferation (CellTiter Glo); type: cell-based; settings: 72 hrs, read-out: SW-48 proliferation IC50
In short: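 Cells plated at 5,000/well and grown 24 hrs were exposed to conjugates for 72 hrs at 37° C, 5% CO2, in a ten-point three-fold series starting at 10 μM; vehicle was 0.01% DMSO. Proliferation was read by CellTiter Glo. % inhibition was taken relative to vehicle, with IC50 from four-parameter nonlinear regression.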

[2] = [125I] neurotensin 0.02 nM, membranes from NTSR1 expressing HEK-293 cells, 45 minute incubation, Cheng and Prusoff, read-out: NTSR1 binding Ki

T1 sequence (P30989 whole entry): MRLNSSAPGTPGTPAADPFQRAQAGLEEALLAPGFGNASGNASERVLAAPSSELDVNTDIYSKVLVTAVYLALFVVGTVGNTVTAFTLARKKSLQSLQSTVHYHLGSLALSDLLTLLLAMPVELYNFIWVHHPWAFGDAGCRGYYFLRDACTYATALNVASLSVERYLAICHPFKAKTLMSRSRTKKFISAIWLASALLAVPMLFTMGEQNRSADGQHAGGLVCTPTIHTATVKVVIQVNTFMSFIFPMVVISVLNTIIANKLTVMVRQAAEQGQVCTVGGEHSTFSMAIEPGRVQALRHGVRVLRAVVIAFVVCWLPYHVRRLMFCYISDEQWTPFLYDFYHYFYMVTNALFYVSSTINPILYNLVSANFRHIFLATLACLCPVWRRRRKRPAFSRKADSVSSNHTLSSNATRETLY

SMILES | Ki (human NTSR1; [2]) | IC50 ([1]; NTSR1 targeted compound) | IC50 ([1]; NTSR1 scrambled compound) | Ki (human NTSR1)
COc1cc2cc(c1Cl)N(C)C(=O)C[C@H](OC(=O)[C@H](C)N(C)C(=O)CCSC1CC(=O)N(CCCNC(=O)CNC(=O)[C@H](CC(C)C)NC(=O)[C@H](Cc3ccccc3)NC(=O)CNC(=O)CCCCCN3C(=O)CC(SCCC(=O)NCCCC[C@H](NC(C)=O)C(=O)N4CCC[C@H]4C(=O)N[C@H](CCCNC(=N)N)C(=O)N[C@@H](CCN)C(=O)N4CCC[C@H]4C(=O)N[C@@H](Cc4ccc(O)cc4)C(=O)N[C@H](C(=O)N[C@@H](CC(C)C)C(=O)O)C(C)(C)C)C3=O)C1=O)[C@]1(C)O[C@H]1[C@H](C)[C@@H]1C[C@@](O)(NC(=O)O1)[C@H](OC)/C=C/C=C(\C)C2 (stereo partly shown) [Compound 30] | 4.23 nM | 42.7 nM | – | –
COc1cc2cc(c1Cl)N(C)C(=O)C[C@H](OC(=O)[C@H](C)N(C)C(=O)CCSC1CC(=O)N(CCCNC(=O)CNC(=O)[C@H](CC(C)C)NC(=O)[C@H](Cc3ccccc3)NC(=O)CNC(=O)CCCCCN3C(=O)CC(SCCC(=O)NCCCC[C@H](NC(C)=O)C(=O)N4CCC[C@H]4C(=O)N[C@@H](CCCNC(=N)N)C(=O)N[C@@H](CCN)C(=O)N4CCC[C@H]4C(=O)N[C@@H](Cc4ccc(O)cc4)C(=O)N[C@H](C(=O)N[C@@H](CC(C)C)C(=O)O)C(C)(C)C)C3=O)C1=O)[C@]1(C)O[C@H]1[C@H](C)[C@@H]1C[C@@](O)(NC(=O)O1)[C@H](OC)/C=C/C=C(\C)C2 (stereo partly shown) [Compound 31] | 2.39 nM | 75.6 nM | – | –
COc1cc2cc(c1Cl)N(C)C(=O)C[C@H](OC(=O)[C@H](C)N(C)C(=O)CCSC1CC(=O)N(CCCNC(=O)CNC(=O)[C@H](CC(C)C)NC(=O)[C@H](Cc3ccccc3)NC(=O)CNC(=O)CCCCCN3C(=O)CC(SCCC(=O)NCCCC[C@H](NC(C)=O)C(=O)N4CCC[C@H]4C(=O)N[C@@H](CCCCN)C(=O)N[C@@H](CCN)C(=O)N4CCC[C@H]4C(=O)N[C@@H](Cc4ccc(O)cc4)C(=O)N[C@H](C(=O)N[C@@H](CC(C)C)C(=O)O)C(C)(C)C)C3=O)C1=O)[C@]1(C)O[C@H]1[C@H](C)[C@@H]1C[C@@](O)(NC(=O)O1)[C@H](OC)/C=C/C=C(\C)C2 (stereo partly shown) [Compound 32] | 5.03 nM | 70.8 nM | – | –
COc1cc2cc(c1Cl)N(C)C(=O)C[C@H](OC(=O)[C@H](C)N(C)C(=O)CCSC1CC(=O)N(CCCNC(=O)CNC(=O)[C@H](CC(C)C)NC(=O)[C@H](Cc3ccccc3)NC(=O)CNC(=O)CCCCCN3C(=O)CC(SCCC(=O)NCCCC[C@H](NC(C)=O)C(=O)N4CCC[C@H]4C(=O)N[C@@H](CCCCN)C(=O)N[C@@H](CCCNC(=N)N)C(=O)N4CCC[C@H]4C(=O)N[C@@H](Cc4ccc(O)cc4)C(=O)N[C@H](C(=O)N[C@@H](CC(C)C)C(=O)O)C(C)(C)C)C3=O)C1=O)[C@]1(C)O[C@H]1[C@H](C)[C@@H]1C[C@@](O)(NC(=O)O1)[C@H](OC)/C=C/C=C(\C)C2 (stereo partly shown) [Compound 33] | 2.32 nM | 105 nM | – | –
COc1cc2cc(c1Cl)N(C)C(=O)C[C@H](OC(=O)[C@H](C)N(C)C(=O)CCSC1CC(=O)N(CCCNC(=O)CNC(=O)[C@H](CC(C)C)NC(=O)[C@H](Cc3ccccc3)NC(=O)CNC(=O)CCCCCN3C(=O)CC(SCCC(=O)NCCCC[C@H](NC(C)=O)C(=O)N4CCC[C@H]4C(=O)N[C@H](CCCN)C(=O)N[C@@H](CCN)C(=O)N4CCC[C@H]4C(=O)N[C@@H](Cc4ccc(O)cc4)C(=O)N[C@H](C(=O)N[C@@H](CC(C)C)C(=O)O)C(C)(C)C)C3=O)C1=O)[C@]1(C)O[C@H]1[C@H](C)[C@@H]1C[C@@](O)(NC(=O)O1)[C@H](OC)/C=C/C=C(\C)C2 (stereo partly shown) [Compound 34] | 6.07 nM | 70.2 nM | – | –
COc1cc2cc(c1Cl)N(C)C(=O)C[C@H](OC(=O)[C@H](C)N(C)C(=O)CCSC1CC(=O)N(CCCNC(=O)CNC(=O)[C@H](CC(C)C)NC(=O)[C@H](Cc3ccccc3)NC(=O)CNC(=O)CCCCCN3C(=O)CC(SCCC(=O)NCCCC[C@H](NC(C)=O)C(=O)N4CCC[C@H]4C(=O)N[C@H](CCCN)C(=O)N[C@@H](CCCNC(=N)N)C(=O)N4CCC[C@H]4C(=O)N[C@@H](Cc4ccc(O)cc4)C(=O)N[C@H](C(=O)N[C@@H](CC(C)C)C(=O)O)C(C)(C)C)C3=O)C1=O)[C@]1(C)O[C@H]1[C@H](C)[C@@H]1C[C@@](O)(NC(=O)O1)[C@H](OC)/C=C/C=C(\C)C2 (stereo partly shown) [Compound 35] | 3.75 nM | 47.3 nM | – | –
COc1cc2cc(c1Cl)N(C)C(=O)C[C@H](OC(=O)[C@H](C)N(C)C(=O)CCSC1CC(=O)N(CCCNC(=O)CNC(=O)[C@H](CC(C)C)NC(=O)[C@H](Cc3ccccc3)NC(=O)CNC(=O)CCCCCN3C(=O)CC(SCCC(=O)NCCCC[C@H](NC(C)=O)C(=O)N4CCC[C@H]4C(=O)N[C@@H](CCCN)C(=O)N[C@@H](CCN)C(=O)N4CCC[C@H]4C(=O)N[C@@H](Cc4ccc(O)cc4)C(=O)N[C@H](C(=O)N[C@@H](CC(C)C)C(=O)O)C(C)(C)C)C3=O)C1=O)[C@]1(C)O[C@H]1[C@H](C)[C@@H]1C[C@@](O)(NC(=O)O1)[C@H](OC)/C=C/C=C(\C)C2 (stereo partly shown) [Compound 36] | 4.8 nM | 50 nM | – | –
COc1cc2cc(c1Cl)N(C)C(=O)C[C@H](OC(=O)[C@H](C)N(C)C(=O)CCSC1CC(=O)N(CCCNC(=O)CNC(=O)[C@H](CC(C)C)NC(=O)[C@H](Cc3ccccc3)NC(=O)CNC(=O)CCCCCN3C(=O)CC(SCCC(=O)NCCCC[C@H](NC(C)=O)C(=O)N4CCC[C@H]4C(=O)N[C@@H](CCCN)C(=O)N[C@@H](CCCNC(=N)N)C(=O)N4CCC[C@H]4C(=O)N[C@@H](Cc4ccc(O)cc4)C(=O)N[C@H](C(=O)N[C@@H](CC(C)C)C(=O)O)C(C)(C)C)C3=O)C1=O)[C@]1(C)O[C@H]1[C@H](C)[C@@H]1C[C@@](O)(NC(=O)O1)[C@H](OC)/C=C/C=C(\C)C2 (stereo partly shown) [Compound 37] | 2.35 nM | 51.6 nM | – | –
COc1cccc2c1C(=O)c1c(O)c3c(c(O)c1C2=O)C[C@@](O)(C(=O)CO)C[C@@H]3O[C@H]1C[C@H](NC(=O)OCCSSC(C)(C)[C@H](NC(C)=O)C(=O)N2CCC[C@H]2C(=O)N[C@@H](CCCNC(=N)N)C(=O)N[C@@H](CCCNC(=N)N)C(=O)N2CCC[C@H]2C(=O)N[C@@H](Cc2ccc(O)cc2)C(=O)N[C@H](C(=O)N[C@@H](CC(C)C)C(=O)O)C(C)(C)C)[C@H](O)[C@H](C)O1 [Compound 51] (Ac-[Pen](X3)PRRPY[Tle]L-OH) | 1.34 nM | 1600 nM | – | –
CC[C@H](C)[C@@H]([C@@H](CC(=O)N1CCC[C@H]1[C@H](OC)[C@@H](C)C(=O)N[C@H](C)[C@@H](O)c1ccccc1)OC)N(C)C(=O)[C@@H](NC(=O)[C@H](C(C)C)N(C)C(=O)OCc1ccc(NC(=O)[C@H](CCCNC(N)=O)NC(=O)[C@@H](NC(=O)CCCCCN2C(=O)CC(SC(C)(C)[C@H](NC(C)=O)C(=O)N3CCC[C@H]3C(=O)N[C@@H](CCCCN)C(=O)N[C@@H](CCCNC(=N)N)C(=O)N3CCC[C@H]3C(=O)N[C@@H](Cc3ccc(O)cc3)C(=O)N[C@H](C(=O)N[C@@H](CC(C)C)C(=O)O)C(C)(C)C)C2=O)C(C)C)cc1)C(C)C (stereo partly drawn) [Compound 59] (I: Ac-[Pen]PKRPY[Tle]L-OH / II: V[Cit][PABC][NMeV]V[Dil][Dolaproine]-X1; linker I:1-II:N via Hexanoyl(6-succinimido-3yl)) | 6.98 nM | 65 nM | – | –
CCc1c2c(nc3ccc(O)cc13)-c1cc3c(c(=O)n1C2)COC(=O)[C@@]3(CC)OC(=O)OCCSSC(C)(C)[C@H](NC(C)=O)C(=O)N1CCC[C@H]1C(=O)N[C@@H](CCCNC(=N)N)C(=O)N[C@@H](CCCNC(=N)N)C(=O)N1CCC[C@H]1C(=O)N[C@@H](Cc1ccc(O)cc1)C(=O)N[C@H](C(=O)N[C@@H](CC(C)C)C(=O)O)C(C)(C)C [Compound 63] (Ac-[Pen](X4)PRRPY[Tle]L-OH) | 1.89 nM | 226 nM | – | –
CCc1c2c(nc3ccc(O)cc13)-c1cc3c(c(=O)n1C2)COC(=O)[C@@]3(CC)OC(=O)OCc1ccc(NC(=O)[C@H](CCCNC(N)=O)NC(=O)[C@@H](NC(=O)CCCCCN2C(=O)CC(SC(C)(C)[C@H](NC(C)=O)C(=O)N3CCC[C@H]3C(=O)N[C@@H](CCCNC(=N)N)C(=O)N[C@@H](CCCNC(=N)N)C(=O)N3CCC[C@H]3C(=O)N[C@@H](Cc3ccc(O)cc3)C(=O)N[C@H](C(=O)N[C@@H](CC(C)C)C(=O)O)C(C)(C)C)C2=O)C(C)C)cc1 (stereo partly shown) [Compound 64] | 2.05 nM | 66 nM | – | –
COc1cc2cc(c1Cl)N(C)C(=O)C[C@H](OC(=O)[C@H](C)N(C)C(=O)CCSSC(C)(C)[C@H](NC(C)=O)C(=O)N1CCC[C@H]1C(=O)N[C@@H](CC(C)C)C(=O)N1CCC[C@H]1C(=O)N[C@@H](CCCNC(=N)N)C(=O)N[C@H](C(=O)N[C@@H](CCCNC(=N)N)C(=O)N[C@@H](Cc1ccc(O)cc1)C(=O)O)C(C)(C)C)[C@]1(C)O[C@H]1[C@H](C)[C@@H]1C[C@@](O)(NC(=O)O1)[C@H](OC)/C=C/C=C(\C)C2 [Compound 77] | > 100 nM | – | 16.5 nM | –
COc1cc2cc(c1Cl)N(C)C(=O)C[C@H](OC(=O)[C@H](C)N(C)C(=O)CCSC1CC(=O)N(CCCNC(=O)CNC(=O)[C@H](CC(C)C)NC(=O)[C@H](Cc3ccccc3)NC(=O)CNC(=O)CCCCCN3C(=O)CC(SC(C)(C)[C@H](NC(C)=O)C(=O)N4CCC[C@H]4C(=O)N[C@@H](CC(C)C)C(=O)N4CCC[C@H]4C(=O)N[C@@H](CCCNC(=N)N)C(=O)N[C@H](C(=O)N[C@@H](CCCNC(=N)N)C(=O)N[C@@H](Cc4ccc(O)cc4)C(=O)O)C(C)(C)C)C3=O)C1=O)[C@]1(C)O[C@H]1[C@H](C)[C@@H]1C[C@@](O)(NC(=O)O1)[C@H](OC)/C=C/C=C(\C)C2 (stereo partly shown) [Compound 81] | – | – | 70 nM | > 100 nM
